Test systems include CCRF-CEM leukemia; EKVX NSCLC; HOP-62 NSCLC; K-562 leukemia; NCI-H460 lung; OVCAR-4 ovarian; RPMI-8226 leukemia; SF-539 CNS; SW-620 colon; ACHN renal.
Holding throughout (assay): DTP human tumour cell line panel, 48 h

For orientation: TGI means the concentration giving total growth inhibition. Lower therefore signals greater sensitivity of the cells. The GI50 is the concentration that inhibits growth by half.

Values joined by “and” are separate entries in the source; they are usually repeats but may differ in a detail not shown here. Identical values can stand only once.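 A five-concentration, 48-hour dose response in 96-well plates underlies each endpoint, interpolated linearly between surrounding concentrations. GI50 is the concentration that inhibits growth by half. At the TGI there is no net growth.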 Where a SMILES comes first, the peptide text is derived from it. [ ]: non-standard residue; d: D form. The star is where a group is joined. NMeF = CN[CH](Cc1ccccc1)C(=O)O; NMeV = CN[CH](C(=O)O)C(C)C; Boc = CC(C)(C)OC(=O)*

Consider `Cc1cn(C2CC(O)C(CO)O2)c(=O)n2nnnc12` (stereo unspecified), for which the TGI with CCRF-CEM leukemia, in the assay on EKVX NSCLC, with HOP-62 NSCLC, in the assay with K-562 leukemia, with NCI-H460 lung and in the assay with OVCAR-4 ovarian was above 100 µM in each case. The concentration for total growth inhibition (TGI) in the assay on RPMI-8226 leukemia, in the assay on SF-539 CNS and in the assay with SW-620 colon was above 100 µM in each case.

As for `CCCN1CCC(=O)N(CCC(F)(F)C(F)(F)C(F)(F)C(F)(F)C(F)(F)C(F)(F)F)C1=S`, the TGI in the assay with ACHN renal, with CCRF-CEM leukemia, in the assay with EKVX NSCLC, in the assay with HOP-62 NSCLC, in the assay on K-562 leukemia and with NCI-H460 lung was above 100 µM throughout. The TGI with OVCAR-4 ovarian, in the assay on SF-539 CNS and with SW-620 colon was above 100 µM throughout.

Consider `COc1cc2nc3cc([N+](=O)[O-])ccc3c(NCCCNCCO)c2cc1OC`, for which the GI50 in the assay with ACHN renal is 256 nM; in the assay on CCRF-CEM leukemia, 211 nM; in the assay on EKVX NSCLC, 353 nM; with HOP-62 NSCLC, 146 nM; in the assay on NCI-H460 lung, 264 nM; with OVCAR-4 ovarian, 114 nM. Moreover, the GI50 in the assay on RPMI-8226 leukemia is 567 nM; in the assay on SF-539 CNS, 191 nM; with SW-620 colon it was 210 nM. Further, the TGI in the assay with ACHN renal came to 0.914 µM; with CCRF-CEM leukemia, 1.41 µM; with EKVX NSCLC it was 4.63 µM; in the assay on HOP-62 NSCLC, 0.422 µM; with NCI-H460 lung it was 0.624 µM; in the assay on OVCAR-4 ovarian, 0.385 µM. The TGI in the assay on RPMI-8226 leukemia was 4.34 µM; in the assay with SF-539 CNS it was 0.478 µM; in the assay on SW-620 colon, 1.03 µM.

With `C[C@@H]1CC(=O)C2CCCC1C2=O` (stereo partly specified), the TGI in the assay on ACHN renal, with CCRF-CEM leukemia, in the assay on EKVX NSCLC, in the assay on HOP-62 NSCLC, in the assay with NCI-H460 lung and in the assay on OVCAR-4 ovarian was above 100 µM throughout. The TGI in the assay with RPMI-8226 leukemia, with SF-539 CNS and in the assay with SW-620 colon was above 100 µM in each case.

With `CC(C)C(Nc1c2ccccc2nc2ccccc12)C(=O)O` (stereo unspecified), the TGI with ACHN renal is above 100 µM; in the assay with CCRF-CEM leukemia, above 100 µM; with EKVX NSCLC, above 100 µM; with K-562 leukemia it was above 100 µM; with NCI-H460 lung it was above 100 µM; with OVCAR-4 ovarian, 85.3 µM. Further, the TGI in the assay on RPMI-8226 leukemia, in the assay on SF-539 CNS and with SW-620 colon was above 100 µM in each case.

As to `C=C1C(=O)O[C@H]2[C@H]1CC/C(COC(=O)C(=O)c1cn(Cc3ccccc3)c3ccccc13)=C\CC[C@@]1(C)O[C@@H]21`, the GI50 in the assay with CCRF-CEM leukemia is 1270 nM; in the assay on EKVX NSCLC it was 2060 nM; in the assay with HOP-62 NSCLC, 2030 nM; in the assay with K-562 leukemia, 2660 nM; in the assay on NCI-H460 lung, 2840 nM; in the assay on OVCAR-4 ovarian it was 4190 nM. Moreover, the values for the GI50 with RPMI-8226 leukemia, with SF-539 CNS and in the assay on SW-620 colon were 2090 nM, 1900 nM and 2330 nM, respectively. The TGI in the assay on CCRF-CEM leukemia was 9.02 µM; with EKVX NSCLC, 5.96 µM; with HOP-62 NSCLC, 5.51 µM; in the assay with K-562 leukemia, 10.4 µM; with NCI-H460 lung, 12.2 µM; with OVCAR-4 ovarian, above 100 µM. Moreover, the results for the TGI in the assay with RPMI-8226 leukemia, in the assay on SF-539 CNS and in the assay with SW-620 colon were 8.04 µM, 3.83 µM and 7.77 µM, respectively.

As to `CC(C)C(NC(=O)OC(C)(C)C)C(=O)N(C)C(Cc1ccccc1)C(=O)N(C)C(C(=O)O)C(C)C` (stereo not drawn) (Boc-Val-[NMeF]-[NMeV]-OH; configuration not given here), the GI50 in the assay with ACHN renal is 23100 nM and > 100000 nM. Also, the TGI is 71 µM and > 100 µM in the assay with ACHN renal; above 100 µM in the assay on CCRF-CEM leukemia; above 100 µM in the assay with EKVX NSCLC; above 100 µM in the assay on HOP-62 NSCLC; above 100 µM in the assay on K-562 leukemia; above 100 µM with NCI-H460 lung. Further, the TGI in the assay on RPMI-8226 leukemia, in the assay with SF-539 CNS and in the assay on SW-620 colon was above 100 µM in each case.

Regarding `COC(C(O)CO)C(O)C(O)C(=O)NNc1ccccc1` (stereo unspecified), the TGI with ACHN renal, in the assay with CCRF-CEM leukemia, in the assay on EKVX NSCLC, with HOP-62 NSCLC, in the assay with K-562 leukemia and with NCI-H460 lung was above 100 µM in each case. In addition, the TGI is above 100 µM in the assay with RPMI-8226 leukemia, 98.3 µM in the assay with SF-539 CNS and above 100 µM with SW-620 colon.

For the compound `COC1=C(C)C(=O)c2c(c(COC(N)=O)c3n2CC2C3N2C)C1=O` (stereo unspecified), the TGI with ACHN renal was below 0.0139 µM; in the assay on CCRF-CEM leukemia it was 0.105 µM; in the assay on EKVX NSCLC it was 0.376 µM; in the assay with HOP-62 NSCLC, 0.074 µM; in the assay with K-562 leukemia it was 0.341 µM; in the assay with OVCAR-4 ovarian, 0.244 µM. For the same compound, the TGI was 0.117 µM in the assay with RPMI-8226 leukemia, 0.12 µM with SF-539 CNS and 0.145 µM with SW-620 colon.

`COc1ccccc1CNCCCN1C(=O)c2ccc3c4c(ccc(c24)C1=O)C(=O)N(CCCOCCCCOCCCN)C3=O`: the GI50 in the assay on ACHN renal was 1210 nM; in the assay on CCRF-CEM leukemia, 559 nM; in the assay with EKVX NSCLC, 1190 nM; with HOP-62 NSCLC, 1320 nM; in the assay on NCI-H460 lung, 597 nM; in the assay on OVCAR-4 ovarian, 193 nM. Also, the GI50 is 1720 nM with RPMI-8226 leukemia, 1680 nM in the assay with SF-539 CNS and 357 nM in the assay on SW-620 colon. In addition, the total growth inhibition concentration (TGI) in the assay with ACHN renal came to 2.57 µM; in the assay on CCRF-CEM leukemia, 3.54 µM; in the assay on EKVX NSCLC it was 2.52 µM; in the assay with HOP-62 NSCLC it was 2.73 µM; with NCI-H460 lung, 2.17 µM; with OVCAR-4 ovarian, 0.54 µM. In addition, the TGI in the assay with RPMI-8226 leukemia turned out to be 5.21 µM; in the assay on SF-539 CNS it was 3.3 µM; in the assay with SW-620 colon, 1.54 µM.

Regarding `CC(C)(C)c1cc(C(C)(C)C)cc(S(=O)(=O)Nc2cc3ccccc3cc2C(=O)NCCN)c1`, the GI50 in the assay on ACHN renal was 1700 nM; with CCRF-CEM leukemia, 2550 nM; in the assay with EKVX NSCLC, 1450 nM; in the assay with HOP-62 NSCLC, 1570 nM; in the assay on K-562 leukemia it was 2160 nM; in the assay on NCI-H460 lung, 2100 nM. Also, the GI50 is 1860 nM in the assay on OVCAR-4 ovarian, 1770 nM with SF-539 CNS and 1930 nM in the assay on SW-620 colon. Also, the concentration for total growth inhibition (TGI) in the assay on ACHN renal came to 3.18 µM; with CCRF-CEM leukemia, 6.41 µM; in the assay on EKVX NSCLC, 2.88 µM; in the assay with HOP-62 NSCLC, 3.01 µM; with K-562 leukemia, 4.85 µM; with NCI-H460 lung it was 4.12 µM. The TGI in the assay with OVCAR-4 ovarian was 3.94 µM; in the assay on SF-539 CNS, 3.28 µM; in the assay with SW-620 colon, 3.95 µM.

These data come from PubChem BioAssay (NCI).
